Laboratory results published in patent US9149492B2, “Method for selectively inhibiting ACAT1 in the treatment of alzheimer's disease” (Trustees of Dartmouth College, priority 2008, dated 2015).
Peptide text beside a SMILES is read from it.

Legend:
[1] = tested on: hippocampal neurons from A1+/Alz mice; experiment: 24SOH treatment of hippocampal neurons, hAPP and HMGR content; assay type: cell-based, mouse
Experimental: Hippocampal neurons were isolated from A1+/Alz and A1−/Alz mice at postnatal day 5 according to standard protocols (Brewer (1997) J. Neurosci. Methods 71:143-155; Price & Brewer (2001) In Protocols for Neural Cell Culture. Fedoroff & Richardson, editors. Totowa, N.J.: Humana Press, Inc. 255-264). Cells were seeded in 6-well dishes in triplicates at 300,000 cells/well, and grown in 3 ml/well Neurobasal A medium with 1×B27, 0.5 mM L-Gln and 5 ng/ml FGF for 14 days. Half of the medium was replaced with […] fresh media once every 7 days. Forty-eight hours after the second media replacement, 50 μCi of [^3H] sodium acetate (100 mCi/mmol) in PBS was added per well for 3 hours. Lipids in cells and in media were extracted, saponified, and analyzed by using the same TLC system described herein. To minimize sterol oxidation, samples were protected from light and heat during lipid extraction, and were analyzed without storage. To improve separation, after sample loading, the TLC plate was placed under vacuum for 30 minutes prior to chromatography. ^3H-labeled sterol bands were identified based on iodine staining of unlabeled sterols added to samples prior to lipid extraction. Rf values: lanosterol, 0.5; cholesterol, 0.38; 24SOH, 0.2. The bands were scraped off and counted. For each labeled sterol, the counts present in cells and in media were added to calculate the synthesis rate for that sterol. Cholesterol esterification in intact cells was conducted according to established methods (Chang, et al. (1986) Biochemistry 25:1693-1699); the ^3H-oleate pulse time was 3 hours.
To test this, hippocampal neurons from A1+/Alz mice were treated with 24SOH, and the hAPP protein content and the HMGR protein content were monitored in parallel.

WT or A1-microglia = experiment: Pulse-chase of intracellular oAβ42 degradation in microglia with lysosomal inhibitors; assay type: cell-based, mouse; conditions: pre-incubation with inhibitor, 0.5 μM oAβ 30 minutes, 6 hours chase
Experimental: WT or A1-microglia were pretreated with DMSO only; with bafilomycin A1 (BafA1), a lysosomal v-ATPase inhibitor (250 nM); with Ac-LVK-CHO, a cell permeable cathepsin B inhibitor (CapB I) at 1 μM; or with pepstatin A methyl ester, a cell permeable aspartyl peptidase inhibitor at 25 μM, for 60 minutes. Cells with or without the inhibitors were further incubated with 0.5 μM oAβ for 30 minutes. Cells were washed with pre-warmed PBS (twice) and pre-warmed medium (once) and then further incubated in fresh serum-free DMEM/F-12 (50:50) for 6 hours. At the end of incubation, cells were washed with PBS twice and lysed with 1% SDS containing a protease inhibitor cocktail. Intracellular oAβ levels were examined by ELISA. The values were normalized by cellular protein contents. The data are averages of 3-4 independent experiments. (mean±SEM, n.s. not significant, *p<0.05, p<0.01, ***p<0.001).
Pulse-chase of oAβ42 was also carried out (FIG. 4A) and the fate of oAβ42 was monitored via an ELISA assay.

AD mice = conditions: in vivo, cited from earlier work
[2] = tested on: transgenic mice expressing human APP(751) containing the London (V717I) and Swedish (K670M/N671L) mutations; conditions: cited from earlier work
WT microglia = experiment: Oligomeric Aβ clearance from medium by microglia; assay type: cell-based, mouse; conditions: 1 μM pretreatment 24 hours, then 0.5 μM oAβ 18 hours
Experimental: WT or A1-microglia were treated with K604 at 1 μM in DMEM/F-12 (50:50) with 10% FBS for 24 hours. Control (Veh) or K604-treated microglia were subsequently incubated with 0.5 μM oAβ in serum-free DMEM/F-12 (50:50) containing 10 μg/ml BSA for 18 hours. At the end of incubation, the media were collected and the residual oAβ levels were detected by western blot analysis. Quantification was performed with image J software (mean±SEM, ***p<0.001).
Primary microglia from normal (WT) and Acat1-knockout (A1−) mouse brains were cultured in vitro. Oligomeric Aβ42 (0.5 μM) in serum-free DMEM/F-12 (50:50) medium containing 10 μg/ml BSA was added to the culture and the culture was incubated for 0, 3, 6, 12 or 18 hours. The remaining Aβ levels (1+2+3+4mers) in the media were analyzed by western blot analysis.
Clearance of oAβ in WT microglia and WT microglia pretreated with the ACAT1-selective inhibitor K604 was also determined.

mouse ACAT1 = mouse ACAT1 (Mus musculus (Mouse), UniProt Q61263); experiment: ACAT1 western blot in NIH-3T3 fibroblasts transfected with microRNA; assay type: cell-based; conditions: 48 hours post-transfection, GFP-positive cells
Excerpt: NIH-3T3 mouse fibroblasts were transiently transfected with one of several rAAV vectors encoding EmGFP and microRNA (miR) #52, #53, #54 or #55. Forty-eight hours post-transfection, GFP-positive cells were harvested by FACS. GFP-positive cells were washed then lysed in 10% SDS and syringe homogenized. Twenty microgram of protein per sample was subjected to SDS-PAGE. After western blot analysis, bands were quantified with ImageJ. ACAT1 intensity was normalized to GAPDH as a loading control and expressed as relative intensity.
Four different siRNA molecules (#52-#55; SEQ ID NOs:37-40; Table 3) targeting the mouse Acat1 gene were inserted into an endogenous mouse microRNA (miR) scaffold using Invitrogen's RNAi design tool. The artificial miRs were ligated into the mammalian expression vector pcDNA6.2-GW/EmGFP-miR. These. […] The miRs were delivered to the cells using a standard cDNA transfection protocol.

human ACAT2 = human ACAT2 (Homo sapiens (Human), UniProt O75908); conditions: read-out: IC50 hACAT-2; cited from earlier work
Chain of human ACAT2 (O75908 whole entry): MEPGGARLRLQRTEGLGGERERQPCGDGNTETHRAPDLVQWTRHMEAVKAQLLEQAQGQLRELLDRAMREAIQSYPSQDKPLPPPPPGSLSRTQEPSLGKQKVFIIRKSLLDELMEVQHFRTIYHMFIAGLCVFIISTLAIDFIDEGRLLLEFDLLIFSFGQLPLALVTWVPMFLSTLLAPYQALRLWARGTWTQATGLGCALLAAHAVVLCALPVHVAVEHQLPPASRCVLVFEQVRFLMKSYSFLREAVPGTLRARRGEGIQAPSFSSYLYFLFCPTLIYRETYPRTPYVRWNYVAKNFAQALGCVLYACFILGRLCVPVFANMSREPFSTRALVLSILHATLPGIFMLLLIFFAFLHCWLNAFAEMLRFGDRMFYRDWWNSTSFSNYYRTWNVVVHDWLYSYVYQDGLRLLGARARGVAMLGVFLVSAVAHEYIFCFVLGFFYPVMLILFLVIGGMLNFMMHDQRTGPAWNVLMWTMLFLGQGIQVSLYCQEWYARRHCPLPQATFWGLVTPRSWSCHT

Molecule: CC(C)[C@@H](O)CC[C@@H](C)[C@H]1CC[C@H]2[C@@H]3CC=C4C[C@@H](O)CC[C@]4(C)[C@H]3CC[C@]12C [24SOH, 24S-hydroxycholesterol]
- HMGR protein content ([1]; 1 μM, within 3 hours): rapidly decreased
- hAPP protein content ([1]; 1 μM, within 3 hours): rapidly decreased
- hAPP mRNA level ([1]; 1-5 μM): without affecting
- hAPP protein content ([1]; 1-5 μM): rapid decline

Molecule: CC(=O)N[C@@H](CC(C)C)C(=O)N[C@H](C(=O)N[C@H](C=O)CCCCN)C(C)C [Ac-LVK-CHO] (Ac-Leu-Val-Lys-aldehyde)
- difference in oAβ42 degradation between WT and A1-microglia (WT or A1-microglia): abolished

Molecule: CC(C)c1cc(C(C)C)c(CC(=O)NS(=O)(=O)Oc2c(C(C)C)cccc2C(C)C)c(C(C)C)c1 [CI 1011]
- amyloid plaques (AD mice; mouse): significantly reduced
- cognitive deficits (AD mice; mouse): rescued
- mature/immature ratio of hAPP (AD mice; mouse): decreases

Molecule: CCCCCCCC[C@H](SCCCCCC)C(=O)Nc1c(SC)cc(C)nc1SC [CP-113,818]
- spatial learning ([2]; mouse, in vivo): slightly improved
- ectodomain shedding of endogenous APP in the brain ([2]; nontransgenic littermates): reduced
- reduction of accumulation of amyloid plaques ([2]; two months of treatment): 88%-99%
- reduction of membrane/insoluble Amyloid β levels ([2]; two months of treatment): 83%-96%
- processing of both human APP and mouse APP (AD mice): inhibits
- amyloid plaques (AD mice; mouse): significantly reduced
- cognitive deficits (AD mice; mouse): rescued

Molecule: CSc1cc(C)nc(SC)c1NC(=O)CN1CCN(CCSc2nc3ccccc3[nH]2)CC1 [K-604]
- enhancement of ability to clear oAβ42 from the medium (WT microglia): up to 65%
- oAβ degradation in microglia (WT microglia): promotes oAβ degradation

Molecule: miR Negative Control: negative control miR 5′-TACTGCGCGTGGAGACG-3′ (SEQ ID NO:46), matches no known vertebrate gene (chemistry not given here)
- Relative Intensity (ACAT1 normalized to GAPDH) (mouse ACAT1): 1.02

Molecule: saucerneol B
- IC50 (human ACAT2): 124 µM
